{
  "source": "patent EP0672415A1",
  "about": "“Organopathy preventing, curing or ameliorating agent” (priority 1994, dated 1995)",
  "key": {"[1]": {"system": "rat liver transplantation", "conditions": "livers ischemic for 60 min, untreated group 0%, cited from earlier work"}, "[2]": {"system": "Slc:ICR mice", "assay": "Acute toxicity test, single intravenous administration, mice", "type": "in vivo, Mouse", "conditions": "for Acute toxicity (LD₅₀): Mouse, Intravenous Injection, single administration", "method": "(§1) A single administration toxicity test was carried out by effecting intravenous injections (medium: physiological saline) to a group consisting of five male and five female 7 to 8-weeks-old Slc:SD rats and a group consisting of five male and five female 7 to 8-weeks-old Slc:ICR mice."}, "[3]": {"system": "Slc:SD rats", "assay": "Acute toxicity test, single intravenous administration, rats", "type": "in vivo, Rat", "conditions": "for Acute toxicity (LD₅₀): Rat, Intravenous Injection, single administration", "method": "as §1"}, "[4]": {"system": "porcine liver transplantation model", "assay": "Porcine liver transplantation model (8 hr cold preservation, sympatric transplantation)", "type": "in vivo, swine", "method": "A model was employed in which swine each weighing 30 to 40 kg were used, the livers were extirpated therefrom and preserved at low temperature for 8 hr, and sympatric liver transplantation was carried out. More specifically, the swine were starved for 24 hr, and randomly divided into two groups. Group 1 consisted of 9 donors and 9 recipients, which were treated with the above compound of the present invention. In the surgical operation of the donors, the compound (I) was added to the perfusate and the preservation fluid (1 mg/ℓ). Further, the compound (I) was continuously intravenously administered to the recipients (0.3 mg/kg) and added, in the surgical operation thereof, to the washing fluid for washing away the preservation fluid from the interior of each of the transplant livers (1 mg/ℓ).\nGroup 2 as a control group not treated with the compound of the present invention consisted of 9 donors and 9 recipients, for which the same continuous intravenous administration was carried out with the use of the same fluids as for Group 1, except that the compound (I) was not added thereto. A University of Wisconsin (hereinafter referred to as \"UW\") fluid prepared in a simplified manner was used for the perfusion and preservation of the transplant livers. The fluid was one obtained by omitting hydroxyethylstarch from the composition of the UW fluid customarily employed in the preservation of livers.\nFor each of the donors, premedication with ketamine (10 mg/kg) was conducted, and the auricular vein was cannulated to initiate the administration of physiological saline. Ketamine (5 mg/kg, i.v.) and pancronium (0.2 mg/kg, i.v.) were administered, and thereafter the airway was secured. The donor under surgical operation was kept anesthetized by inhalation of 3 ℓ of oxygen, 4 ℓ of laughing gas and 1.5% ethrane.\nHeparin (10,000 IU) was intravenously injected, and thereafter the subrenal ventral aorta was cannulated. […] The gallbladder was dissected, and washed with physiological saline. The resultant liver was taken out, and immersed in a UW fluid bath. […] The transplant liver was preserved at 4°C for 8 hr.\nEach of the recipient swine was also anesthetized in the same manner as described above with respect to the surgical operation of the donors. The right carotid artery and the right subclavian vein were cannulated for blood pressure monitoring and blood sampling and for intravenous injection, respectively. The abdomen was cut open, and the liver was detached and removed. During the ahepatic period, the blood from the portal vein was passively bypassed through a shunt tube inserted into the portal vein and the right external jugular vein. […] After the completion of the anastomosis with the portal vein, the transplant liver was reperfused with the blood from the portal vein.\nThe bile duct was drained outside the body through a biliary external fistula tube.\nJust before the anastomosis with the portal vein, the transplant liver was perfused with lactated Ringer's solution (500 ml) containing dextrose (5 wt.%), mannitol (1.25 wt.%) and sodium bicarbonate (0.21 wt.%) to thereby remove the preservation fluid. The washing fluid was held at 30 to 37°C. Within 3 min of the hot washing, the transplant liver was reperfused.\nDuring the ahepatic period starting with the initiation of the surgical operation, physiological saline (500 ml) containing dextrose (2.5 wt.%) was administered through the auricular vein. For the Group 1, the compound (I) (0.3 mg/kg) was mixed in the saline solution. During the ahepatic period, 500 to 750 ml of physiological saline containing sodium bicarbonate (0.21 wt.%) was rapidly injected in order to prevent blood pressure lowering. Sodium bicarbonate (1.05 g) and calcium gluconate (0.1 g) were intravenously administered prior to the reperfusion of the transplant liver. During the surgical operation, no transfusion was conducted, and a total of 1.5 to 2.0 ℓ of infusion solution was administered. […]"}, "[5]": {"system": "Large-White pigs", "assay": "Orthotopic liver transplantation following 8 hour cold preservation in pigs (second description)", "type": "in vivo", "method": "Orthotopic liver transplantations following 8 hour cold preservation were performed. Large-White pigs weighing 35-40 Kg were used after 24 hours starvation. Pigs were randomly divided into 2 groups. In Group 1, the PAF antagonist treatment group, consisting of 9 donors and 9 recipients, the PAF antagonist the compound (I) was given in the solutions (1mg/L) for flush-out and preservation at donor operation. It was also administered into recipients (0.3mg/Kg body weight) as an infusion and given in the solution (1mg/L) for rinsing before reperfusion of the graft (RPF) at recipient operation. Group 2, the untreated control group, consisted of 9 donors and 9 recipients that received the same solutions or intravenous infusion only without the compound (I). The solutions for flush-out and preservation of the graft liver were simplified UW solution in which hydroxyethyl starch was omitted from the original formulation of UW solution described for liver preservation, according to the reports showing that hydroxyethyl starch is not an essential component in UW solution.\nFollowing premedication with ketamine (10mg/Kg i.m.), the ear vein was cannulated and saline perfusion was started. After injection of ketamine (5mg/Kg i.v.) and pancuronium (0.2mg/Kg i.v.), the animals were […]. Anesthesia was maintained by inhalation with 3L oxygen, 4L nitrous oxide and 1.5% ethranne. […] Following intravenous injection of heparine (10,000IU), the subrenal abdominal aorta was cannulated. […] The gallbladder was incised and washed with saline. The liver was harvested and dipped in 4üÄ UW solution bath.\nThe recipient pigs were anesthesized as described in donor operation. The right carotid artery and the right subclavian vein were then cannulated for blood pressure monitoring and blood sampling and for intravenous fluid infusion, respectively. After laparotomy, the liver was dissected free and removed. During anhepatic period, the portal blood was passively shunted by a tube between the portal vein and the right external jugular vein. […] The graft liver was reperfused with the portal blood after completion of the portal vein anastomosis. The bile duct was drained by external tube fistula. Immediately before the anastomosis of the portal vein, to remove the preservation solution, the graft liver was flushed with 500ml of Ringers lactate containig dextrase (5g%), mannitol (1.25g%) and sodium bicarbonate (0.21g%) as previously described. […] In our operations, the duration between the warm rinsing and RPF was less than 3 miniutes by using the cuff technique in portal vein anastomosis.\nIntraoperative fluid infusion was as follows; 500ml of saline containing dextrose (2.5g%) was infused through the ear vein between the begining of the operation and the anhepatic period. In Group 1, The compound (I) (0.3mg/Kg) was mixed in this solution. During the anhepatic period, 500-750ml of saline containing sodium bicarbonate (0.21g%) was rapidly infused to prevent hypotension. Prior to RPF, sodiumu bicarbonate (1.05g) and calcium gluconate (0.1g) were injected intravenously. As a total, 1.5-2L of the fluid was infused during operation without any blood transfusion. Postoperatively, 0.5-1.0L of 5% dextrose solution was infused for the first 12 hours. Sodium bicarbonate was given to correct metabolic acidosis when necessary. No immunosuppressant was administered.\n(§2) (1-Ethyl-2-[N-(2-methoxy)benzoyl-N-[(2R)-2-methoxy-3-( 4-octadecylcarbamoyloxy)piperidinocarbonyloxypopoxy]carbonyl]aminomethylpyridinium chloride, molecular weight 860.5) was supplied in powder form by Eisai Co.,Ltd. (Japan). It is soluble in water and saline, and a 1.5 mg/ml solution was prepared with saline immediately before use.\nAKBR was measured at the time of cannulation in the right carotid artery (before), and at 1, 2, 4 and 12 hours after RPF. […]"}, "[6]": {"assay": "Solubility in water and physiological saline", "type": "physicochemical", "method": "The compound (I) soluble in both water and physiological saline was dissolved in physiological saline to prepare a solution of the compound (I) (1.5 mg/ml) prior to use.\nas §2"}, "[7]": {"system": "human platelets", "conditions": "reported value; read-out: IC50 value, inhibition of aggregation of human platelets induced by PAF; cited from earlier work"}, "[8]": {"conditions": "Group 1, 4 hr after the reperfusion (p<0.05)"}},
  "note": "“And” between values parts separate entries of the source, which are not always exact repeats. Equal values may be shown once. Read-outs that look alike come from different tables or passages of the source.",
  "data": [
    {"smiles": "COC1=C(OC)C(=O)C(C/C=C(\\C)CC/C=C(\\C)CC/C=C(\\C)CC/C=C(\\C)CC/C=C(\\C)CC/C=C(\\C)CC/C=C(\\C)CC/C=C(\\C)CC/C=C(\\C)CCC=C(C)C)=C(C)C1=O", "note": "[coenzyme Q₁₀]", "values": [
      {"measurement": "one-week survival rate", "setting": "[1]; 10 mg/kg intravenously to the donor rats prior to the operation", "value": "about 50%"},
      {"measurement": "one-week survival rate", "setting": "[1]; 10 mg/kg intravenously to the recipient rats prior to the operation", "value": "about 50%"}
    ]},
    {"smiles": "CCCCCCCCCCCCCCCCCCNC(=O)OC1CCN(C(=O)OCC(COC(=O)N(Cc2cccc[n+]2CC)C(=O)c2ccccc2OC)OC)CC1.[Cl-]", "note": "(stereo not drawn) [compound (I), 1-ethyl-2-[N-(2-methoxy)benzoyl-N-{2-methoxy-3-(4-octadecylcarbamoyloxy)piperidinocarbonyloxypropoxy}carbonyl]aminomethylpyridinium chloride]", "values": [
      {"measurement": "Acute toxicity (LD₅₀)", "setting": "[2]; Female", "value": 50.0, "unit": "mg/kg"},
      {"measurement": "Acute toxicity (LD₅₀)", "setting": "[2]; Male", "value": 46.8, "unit": "mg/kg"},
      {"measurement": "LD₅₀ values relative to the clinical dose in intravenous injection", "setting": "[2]; mouse LD₅₀ values of Table 1", "value": "≥ 50", "unit": "times"},
      {"measurement": "Acute toxicity (LD₅₀)", "setting": "[3]; Female", "value": 22.8, "unit": "mg/kg"},
      {"measurement": "Acute toxicity (LD₅₀)", "setting": "[3]; Male", "value": 18.2, "unit": "mg/kg"},
      {"measurement": "LD₅₀ values relative to the clinical dose in intravenous injection", "setting": "[3]; rat LD₅₀ values of Table 1", "value": "≥ 50", "unit": "times"},
      {"measurement": "hematocrit values", "setting": "[4]; Group 1 (both groups alike), course after the reperfusion", "value": "rapidly increased 2 hr after the reperfusion, and gradually decreased thereafter"},
      {"measurement": "survival of all of the 9 swine", "setting": "[4]; Group 1 (treated group)", "value": "at least 4 days"},
      {"measurement": "12-hr or longer survinal rate", "setting": "[4]; Group 1, 9/9, Group 2 (untreated) 56% (5/9)", "value": 100, "unit": "%"},
      {"measurement": "lactate level of arterial blood", "setting": "[4]; Group 1, 2 hr after the reperfusion", "value": "9.9 ± 1.0", "unit": "mmol/L"},
      {"measurement": "platelet count", "setting": "[4]; Group 1, 2 hr later", "value": "309.8 ± 21.6", "unit": "×10³/µℓ"},
      {"measurement": "leukocyte count", "setting": "[4]; Group 1, 2 hr later (p<0.01 vs Group 2)", "value": "14.3 ± 1.8", "unit": "×10³/µℓ"},
      {"measurement": "GOT level", "setting": "[4]; [8]", "value": "712 ± 97", "unit": "U/ℓ"},
      {"measurement": "GPT level", "setting": "[4]; [8]", "value": "65 ± 4", "unit": "U/ℓ"},
      {"measurement": "lactate level of arterial blood", "setting": "[4]; [8]", "value": "6.2 ± 1.1", "unit": "mmol/L"},
      {"measurement": "lactate level of arterial blood", "setting": "[4]; Group 1, 12 hr after the reperfusion", "value": "recovered to the initial level"},
      {"measurement": "AKBR", "setting": "[4]; Group 1, 12 hr after the reperfusion, significantly higher than Group 2 (p<0.05)", "value": "recovered to the normal condition level"},
      {"measurement": "platelet count", "setting": "[4]; Group 1, 12 hr later", "value": "227.8 ± 13.4", "unit": "×10³/µℓ"},
      {"measurement": "AKBR", "setting": "[4]; Group 1, during 4 hr after the reperfusion, compared with Group 2", "value": "only slightly higher than that of the Group 2"},
      {"measurement": "leukocyte count", "setting": "[4]; Group 1, prior value", "value": "11.5 ± 1.1", "unit": "×10³/µℓ"},
      {"measurement": "platelet count", "setting": "[4]; Group 1, prior value", "value": "294.4 ± 19.8", "unit": "×10³/µℓ"},
      {"measurement": "Histologic study (optical microscope): hepatocyte necroses, stagnation of hepatosinusoidal inflammatory cells, vacuolar degeneration", "setting": "[4]; Group 1, reperfused liver 1 hr after the reperfusion", "value": "little observed"},
      {"measurement": "glycogen content of the hepatocytes (staining)", "setting": "[4]; Group 1 versus Group 2, 1 hr after the reperfusion", "value": "the glycogen content of the hepatocytes in the Group 2 was smaller than that in the Group 1"},
      {"measurement": "Period of Survival", "setting": "[4]; individual recipient swine of Group 1 (treated): 1 mg/ℓ in perfusate, preservation fluid and washing fluid, 0.3 mg/kg i.v. to recipients, 0.3 mg/kg", "value": "7 days or more (4×) and 4 days and 5 days and 6 days (2×) and 7 days"},
      {"measurement": "hematocrit values", "setting": "[5]; Group 1 (both groups alike), course after RPF", "value": "increased markedly at 2 hours after RPF, and then gradually decreased"},
      {"measurement": "survival of all the 9 pigs", "setting": "[5]; Group 1 (treated)", "value": "more than 4 days"},
      {"measurement": "platelet count", "setting": "[5]; Group 1, at 2 hours after RPF", "value": "slightly increased at 2 hours"},
      {"measurement": "lactate level in arterial blood", "setting": "[5]; Group 1, at 12 hours after RPF", "value": "restored to the primary levels"},
      {"measurement": "Histological examination by light microscopy (HE stain): necrosis of hepatocytes, exudate of inflammatory cells, microvesicular changes", "setting": "[5]; Group 1, reperfused liver at 1 hour after RPF", "value": "rarely seen"},
      {"measurement": "content of glycogen in hepatocytes (PAS staining)", "setting": "[5]; Group 1 versus Group 2, at 1 hour after RPF", "value": "lesser content of glycogen in hepatocytes in Group 2 than in Group 1"},
      {"measurement": "AKBR", "setting": "[5]; Group 1 versus Group 2, at 4 hours after RPF", "value": "tendency to be higher in Group 1 than in Group 2, though not significant"},
      {"measurement": "Survival", "setting": "[5]; individual pigs of Group 1 (n=9) (treated): 1mg/L in flush-out, preservation and rinsing solutions, 0.3mg/Kg infusion to recipients, 0.3 mg/kg", "value": ">7 POD (4×) and 4 POD and 5 POD and 6 POD (2×) and 7 POD"},
      {"measurement": "solubility", "setting": "[6]", "value": "soluble"},
      {"measurement": "IC50", "setting": "[7]", "value": 0.66, "unit": "nM"}
    ]}
  ]
}
